“And” between values parts separate entries of the source, which are not always exact repeats. Identical values can stand only once.
Tested on: rats with middle cerebral artery occlusion (MCAO)
Experiment: Body swing test (% right swing), MCAO rats, double crossover study (Example 2)
Type: in vivo, Sprague Dawley rat
Settings: for Body Swing Test (% right Swing), individual animals: one value per rat
Protocol: 4-AP was evaluated for its ability to promote functional sensorimotor improvement following ischemic stroke in rats with stable motor deficits at times remote from their ischemic events. The animal model mimics the conditions in human ischemic stroke and is produced by middle cerebral artery occlusion (MCAO), which results in extensive infarction in cerebral cortex and striatum, including the cortical spinal tract (white matter).
In particular, the MCAO model in Sprague Dawley rats that was utilized in the experiments presented below mimics the conditions in human ischemic stroke. In this model, focal cerebral infarcts were made by permanent occlusion of the proximal right middle cerebral artery (MCA) using a modification of the method of Tamura et al. (No To Shinkei 1986; 38:747-51). Briefly, the temporalis muscle was bisected and reflected through an incision made midway between the eye and the ear canal. The proximal MCA was exposed through a subtemporal craniectomy without removing the zygomatic arch and without transecting the facial nerve.
Dosing and Treatment: Rats were treated in accordance with the dosing schedule shown in Tables 2A, 2B, 3 and FIG. 2, with each Phase being a two week period of time. A solution of 4-AP was used in this experiment. Dosing was started at 4 weeks after ischemic event. 4-aminopyridine was dissolved in water for injection (WFI, Cellgro) and sterile filtered. Final concentrations of 0.315 mg/mL or 1.0 mg/mL of 4-aminopyridine were delivered at 2 mL/kg by gastric gavage, resulting in final doses of 0.63 mg/kg and 2 mg/kg respectively. Vehicle control treatment was WFI delivered at 2 mL/kg by gastric gavage. This study was divided into three treatment phases (1-3) with each randomized cohort of animals receiving a different dose level during each of the treatment phases. Starting on day 30 after MCAO (Day 30, start of phase 1), the animals received gavage dosing of solutions (2 mL/kg) approximately 12 hours apart, for a total of five doses. The same schedule was repeated with different treatment on Day 44 and Day 58 for phase 2 and 3 of the study, respectively. Animals were not treated during the 10 days between phases (washout period).
Treatment groups: Dosing was started 4 weeks after MCAO surgery. During these 4 weeks, weekly behavioral assessments, as defined below, were performed. Two dose levels of 4-AP plus vehicle control were assessed, with treatment starting at 4 weeks after ischemic event. All dosing was via gastric gavage, volume not to exceed 2 mL/kg. Animals were given the first dose and behavioral assessments were performed starting 60 minutes after dosing. Animals then received the second dose that day at the appropriate time and b.i.d (preferably every 12 hours) thereafter for 2 more days (3 total days of dosing, 5 total doses). One hour after the 5th dose, animals were subjected to behavioral assessments as defined below. Following the final behavioral assessment, drug was withdrawn for 10 or 11 days, behavior was re-assessed, and then animals were re-challenged with a cross-over treatment (Phase 2 of Table 2B) as described in Tables 2A, 2B and 3, followed by the same behavioral testing and dosing regimen. This cross-over was repeated one more time as well (Phase 3 of Table 2B) (see FIG. 2).
Behavioral test details: Behavioral evaluations were done by evaluators blinded to treatment assignment. Blinded assessments of sensorimotor function were performed just prior to MCAO surgery, 24 hours after MCAO surgery and weekly thereafter until the first phase of dosing using limb placing and body swing behavioral tests. As described above, behavioral assessments were timed exactly with dosing times. Animals were tested one hour after the 1st and 5th doses of each phase (i.e., Days 30 and 32 of the first phase, Days 44 and 46 of the second phase; and Days 58 and 60 of the third phase); animals were also tested during the washout periods on Days 42 and 56. […]

Nc1ccncc1 [4-aminopyridine]
Body swing function, low dose compared to vehicle, second mixed model (0.63 mg/kg b.i.d. p.o., level 0.05): didn't show the statistical significant improvement
Body swing function, low dose compared to vehicle, first mixed model (0.63 mg/kg b.i.d. p.o., p=0.033): significantly improved the body swing function
Body swing function, high dose compared to vehicle (2 mg/kg b.i.d. p.o., first mixed model p=0.0131, second p<0.0001): significantly improved the body swing function
Body Swing Test (% right Swing), individual animals (Group 1 (sequence hlv), D30 after MCAO, phase 1, high dose): 33.33% and 40.00% (2×) and 30.00%
Body Swing Test (% right Swing), individual animals (Group 1 (sequence hlv), D32 after MCAO, phase 1, high dose): 50.00% (3×) and 40.00% (2×) and 30.00%
Body Swing Test (% right Swing), individual animals (Group 1 (sequence hlv), D44 after MCAO, phase 2, low dose): 33.33% and 50.00% and 40.00% (2×) and 30.00% (2×)
Body Swing Test (% right Swing), individual animals (Group 1 (sequence hlv), D46 after MCAO, phase 2, low dose): 33.33% and 30.00% and 20.00% (2×) and 40.00%
Body Swing Test (% right Swing), individual animals (Group 2 (sequence lvh), D30 after MCAO, phase 1, low dose): 20.00% and 40.00% and 30.00% (2×)
Body Swing Test (% right Swing), individual animals (Group 2 (sequence lvh), D32 after MCAO, phase 1, low dose): 40.00% and 30.00% (2×)
Body Swing Test (% right Swing), individual animals (Group 2 (sequence lvh), D58 after MCAO, phase 3, high dose): 40.00% and 50.00% (2×)
Body Swing Test (% right Swing), individual animals (Group 2 (sequence lvh), D60 after MCAO, phase 3, high dose): 40.00% (5×) and 50.00% (4×)
Body Swing Test (% right Swing), individual animals (Group 3 (sequence vhl), D44 after MCAO, phase 2, high dose): 40.00% (3×) and 43.33% (2×) and 46.67% (2×) and 53.33% and 13.33% and 36.67% and 50.00% (2×) and 23.33% and 33.33%
Body Swing Test (% right Swing), individual animals (Group 3 (sequence vhl), D46 after MCAO, phase 2, high dose): 40.00% (3×) and 43.33% (4×) and 50.00% and 30.00% (2×) and 53.33% (3×) and 20.00% and 23.33%
Body Swing Test (% right Swing), individual animals (Group 3 (sequence vhl), D58 after MCAO, phase 3, low dose): 30.00% (3×) and 46.67% (3×) and 40.00% (2×) and 20.00% (3×) and 53.33% and 33.33%
Body Swing Test (% right Swing), individual animals (Group 3 (sequence vhl), D60 after MCAO, phase 3, low dose): 30.00% (2×) and 43.33% (2×) and 36.67% (4×) and 50.00% (2×) and 26.67% and 23.33%
Body swing scores, Day 56 vs. Day 60 (Group 3, third treatment phase, low dose 0.63 mg/kg): unchanged
Effect on global body control, body swing test (FIG. 5) (low or high dose, reversible and dose-dependent): effective to improve global body control

— patent publication US20160067232A1, “METHODS FOR TREATING A STROKE-RELATED SENSORIMOTOR IMPAIRMENT USING AMINOPYRIDINES” (Acorda Therapeutics, Inc., priority 2011, published 2016)
